biological target: T1, human TRPV1 (Homo sapiens, UniProt Q8NER1); experiment: Measurement of capsaicin-induced Ca influx in human TRPV1 transformed CHO cell line using FDSS-6000; type: cell-based; settings: concentration at which the capsaicin concentration-reaction curve is shifted two times to the right, human TRPV1 transformed CHO cells
T1 construct: expressed in transfected cells; host or cells: CHO-K1
T1 sequence (Q8NER1 whole entry): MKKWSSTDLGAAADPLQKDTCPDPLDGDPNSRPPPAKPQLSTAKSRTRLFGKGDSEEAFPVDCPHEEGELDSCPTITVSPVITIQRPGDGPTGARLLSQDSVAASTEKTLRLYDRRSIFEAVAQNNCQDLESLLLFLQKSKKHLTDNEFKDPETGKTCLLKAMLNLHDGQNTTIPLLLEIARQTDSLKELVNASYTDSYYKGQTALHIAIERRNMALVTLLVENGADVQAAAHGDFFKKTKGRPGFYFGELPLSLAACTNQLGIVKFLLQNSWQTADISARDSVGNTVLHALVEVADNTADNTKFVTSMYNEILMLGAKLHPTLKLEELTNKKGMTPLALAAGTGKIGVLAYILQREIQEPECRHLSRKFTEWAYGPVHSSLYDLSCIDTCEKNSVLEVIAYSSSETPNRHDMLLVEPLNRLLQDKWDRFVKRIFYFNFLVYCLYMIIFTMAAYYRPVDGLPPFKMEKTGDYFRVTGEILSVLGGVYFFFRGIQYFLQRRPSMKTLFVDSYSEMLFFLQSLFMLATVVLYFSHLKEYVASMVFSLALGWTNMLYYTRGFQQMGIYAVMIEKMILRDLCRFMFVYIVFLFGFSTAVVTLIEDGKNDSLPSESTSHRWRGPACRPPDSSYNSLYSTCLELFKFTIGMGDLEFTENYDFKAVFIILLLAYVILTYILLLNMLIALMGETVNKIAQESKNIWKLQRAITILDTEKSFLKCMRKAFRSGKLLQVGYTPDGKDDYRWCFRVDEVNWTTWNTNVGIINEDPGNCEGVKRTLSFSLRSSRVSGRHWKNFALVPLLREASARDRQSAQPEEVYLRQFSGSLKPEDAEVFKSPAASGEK

Structure (SMILES)	A2 VALUE
O=C(/C=C1\CCOc2cc(OC(F)(F)C(F)F)ccc21)Nc1cccc2c1CC(O)CN2 (stereo not drawn) [Example 213, (E)-2-(7-(1,1,2,2-tetrafluoroethoxy)-chroman-4-ylidene)-N-(3-hydroxy-1,2,3,4-tetrahydroquinolin-5-yl)acetamide]	A (compounds of the present invention having an A2 value of less than 100 nM are represented by A)
CC(C)(F)C(=O)N1CC/C(=C\C(=O)Nc2cccc3c2CC(O)CC3)c2ccc(C(F)(F)F)cc21 (stereo not drawn) [Example 96, (E)-2-(1-(2-fluoro-2-methylpropanoyl)-7-trifluoromethyl-2,3-dihydroquinolin-4(1H)-ylidene)-N-(7-hydroxy-5,6,7,8-tetrahydronaphthalen-1-yl)acetamide]	A (compounds of the present invention having an A2 value of less than 100 nM are represented by A)
O=C(/C=C1\CC2(CCC2)Oc2cc(C(F)(F)F)ccc21)Nc1cccc2c1CC(O)CN2 (stereo not drawn) [Example 252, (E)-N-(3-hydroxy-1,2,3,4-tetrahydroquinolin-5-yl)-2-(7-trifluoromethyl-2,2-cyclobutylchroman-4-ylidene)acetamide]	A (compounds of the present invention having an A2 value of less than 100 nM are represented by A)
